From ChEMBL document CHEMBL5046315, “CRCM5484: A BET-BDII Selective Compound with Differential Anti-leukemic Drug Modulation” (J Med Chem, 2022)
Activity calls are given as the source filed them. The calls are words filed in the database; no cut-off is given here.

Assays:
Format in all cases: functional, cell-based
U-937 [1] = experiment: Potentiation of vorinostat-induced antileukemic activity against human U-937 cells at 4.3 uM in presence of bone-marrow derived stromal cell-conditioned medium
MOLM-14 [2] = experiment: Potentiation of rigosertib-induced antileukemic activity against human MOLM-14 cells at 4.3 uM in presence of bone-marrow derived stromal cell-conditioned medium
MOLM-14 [3] = experiment: Potentiation of ruxolitinib-induced antileukemic activity against human MOLM-14 cells at 4.3 uM in presence of bone-marrow derived stromal cell-conditioned medium
CCRF-CEM [4] = experiment: Potentiation of GSK2879552-induced antileukemic activity against human CCRF-CEM cells at 4.3 uM in presence of bone-marrow derived stromal cell-conditioned medium
CCRF-CEM [5] = experiment: Potentiation of olaparid-induced antileukemic activity against human CCRF-CEM cells at 4.3 uM in presence of bone-marrow derived stromal cell-conditioned medium
MOLM-14 [6] = experiment: Potentiation of SGI-1027-induced antileukemic activity against human MOLM-14 cells at 4.3 uM in presence of bone-marrow derived stromal cell-conditioned medium
MOLM-14 [7] = experiment: Potentiation of crenolatinib-induced antileukemic activity against human MOLM-14 cells at 4.3 uM in presence of bone-marrow derived stromal cell-conditioned medium
MOLM-14 [8] = experiment: Potentiation of temsirolimus-induced antileukemic activity against human MOLM-14 cells at 4.3 uM in presence of bone-marrow derived stromal cell-conditioned medium
CCRF-CEM [9] = experiment: Potentiation of ponatinib-induced antileukemic activity against human CCRF-CEM cells at 4.3 uM in presence of bone-marrow derived stromal cell-conditioned medium
U-937 [10] = experiment: Potentiation of selinexor-induced antileukemic activity against human U-937 cells at 4.3 uM in presence of bone-marrow derived stromal cell-conditioned medium
CCRF-CEM [11] = experiment: Potentiation of vermurafenib-induced antileukemic activity against human CCRF-CEM cells at 4.3 uM in presence of bone-marrow derived stromal cell-conditioned medium
CCRF-CEM [12] = experiment: Potentiation of etoposide-induced antileukemic activity against human CCRF-CEM cells at 4.3 uM in presence of bone-marrow derived stromal cell-conditioned medium
U-937 [13] = experiment: Potentiation of dasatinib-induced antileukemic activity against human U-937 cells at 4.3 uM in presence of bone-marrow derived stromal cell-conditioned medium
MOLM-14 [14] = experiment: Potentiation of niotinib-induced antileukemic activity against human MOLM-14 cells at 4.3 uM in presence of bone-marrow derived stromal cell-conditioned medium
MOLM-14 [15] = experiment: Potentiation of afatinib-induced antileukemic activity against human MOLM-14 cells at 4.3 uM in presence of bone-marrow derived stromal cell-conditioned medium
U-937 [16] = experiment: Potentiation of SGI-110-induced antileukemic activity against human U-937 cells at 4.3 uM in presence of bone-marrow derived stromal cell-conditioned medium
U-937 [17] = experiment: Potentiation of asparaginase-induced antileukemic activity against human U-937 cells at 4.3 uM in presence of bone-marrow derived stromal cell-conditioned medium
MOLM-14 [18] = experiment: Potentiation of selinexor-induced antileukemic activity against human MOLM-14 cells at 4.3 uM in presence of bone-marrow derived stromal cell-conditioned medium
CCRF-CEM [19] = experiment: Potentiation of topotecan-induced antileukemic activity against human CCRF-CEM cells at 4.3 uM in presence of bone-marrow derived stromal cell-conditioned medium
MOLM-14 [20] = experiment: Potentiation of sorafenib-induced antileukemic activity against human MOLM-14 cells at 4.3 uM in presence of bone-marrow derived stromal cell-conditioned medium
U-937 [21] = experiment: Potentiation of birinapant-induced antileukemic activity against human U-937 cells at 4.3 uM in presence of bone-marrow derived stromal cell-conditioned medium
CCRF-CEM [22] = experiment: Potentiation of selinexor-induced antileukemic activity against human CCRF-CEM cells at 4.3 uM in presence of bone-marrow derived stromal cell-conditioned medium
K562 = experiment: Cytotoxicity against human K562 cells assessed as reduction in cell viability incubated for 72 hrs; settings: K562, 72 h
MOLM-14 [23] = experiment: Potentiation of bosutinib-induced antileukemic activity against human MOLM-14 cells at 4.3 uM in presence of bone-marrow derived stromal cell-conditioned medium
U-937 [24] = experiment: Potentiation of bleomycine-induced antileukemic activity against human U-937 cells at 4.3 uM in presence of bone-marrow derived stromal cell-conditioned medium
CCRF-CEM [25] = experiment: Potentiation of panobinostat-induced antileukemic activity against human CCRF-CEM cells at 4.3 uM in presence of bone-marrow derived stromal cell-conditioned medium
MOLM-14 [26] = experiment: Potentiation of GSK2879552-induced antileukemic activity against human MOLM-14 cells at 4.3 uM in presence of bone-marrow derived stromal cell-conditioned medium
U-937 [27] = experiment: Potentiation of ruxolitinib-induced antileukemic activity against human U-937 cells at 4.3 uM in presence of bone-marrow derived stromal cell-conditioned medium
MOLM-14 [28] = experiment: Potentiation of decitabine-induced antileukemic activity against human MOLM-14 cells at 4.3 uM in presence of bone-marrow derived stromal cell-conditioned medium
MOLM-14 [29] = experiment: Potentiation of seliciclib-induced antileukemic activity against human MOLM-14 cells at 4.3 uM in presence of bone-marrow derived stromal cell-conditioned medium
U-937 [30] = experiment: Potentiation of clofarabine-induced antileukemic activity against human U-937 cells at 4.3 uM in presence of bone-marrow derived stromal cell-conditioned medium
MOLM-14 [31] = experiment: Potentiation of AC-4-130-induced antileukemic activity against human MOLM-14 cells at 4.3 uM in presence of bone-marrow derived stromal cell-conditioned medium
U-937 [32] = experiment: Potentiation of docetaxel-induced antileukemic activity against human U-937 cells at 4.3 uM in presence of bone-marrow derived stromal cell-conditioned medium
CCRF-CEM [33] = experiment: Potentiation of venetoclax-induced antileukemic activity against human CCRF-CEM cells at 4.3 uM in presence of bone-marrow derived stromal cell-conditioned medium
U-937 [34] = experiment: Potentiation of MK2206-induced antileukemic activity against human U-937 cells at 4.3 uM in presence of bone-marrow derived stromal cell-conditioned medium
MOLM-14 [35] = experiment: Potentiation of entinostat-induced antileukemic activity against human MOLM-14 cells at 4.3 uM in presence of bone-marrow derived stromal cell-conditioned medium
U-937 [36] = experiment: Potentiation of topotecan-induced antileukemic activity against human U-937 cells at 4.3 uM in presence of bone-marrow derived stromal cell-conditioned medium
CCRF-CEM [37] = experiment: Potentiation of trametinib-induced antileukemic activity against human CCRF-CEM cells at 4.3 uM in presence of bone-marrow derived stromal cell-conditioned medium
CCRF-CEM [38] = experiment: Potentiation of temsirolimus-induced antileukemic activity against human CCRF-CEM cells at 4.3 uM in presence of bone-marrow derived stromal cell-conditioned medium
CCRF-CEM [39] = experiment: Cytotoxicity against human CCRF-CEM cells assessed as reduction in cell viability incubated for 72 hrs
MOLM-14 [40] = experiment: Downregulation of Myc expression in human MOLM-14 cells incubated for 2 hrs by RT-PCR analysis; settings: dose 5.0 µM
MOLM-14 [41] = experiment: Potentiation of birinapant-induced antileukemic activity against human MOLM-14 cells at 4.3 uM in presence of bone-marrow derived stromal cell-conditioned medium

## CC(=O)N1CCc2c(sc3nc(SCC(=O)Nc4cccnc4C)n(Cc4ccco4)c(=O)c23)C1
U-937 [1]
  Activity: inactive
MOLM-14 [2]
  Activity: inactive
MOLM-14 [3]
  Activity: inactive
CCRF-CEM [4]
  Activity: inactive
CCRF-CEM [5]
  Activity: inactive
MOLM-14 [6]
  Activity: inactive
MOLM-14 [7]
  Activity: inactive
MOLM-14 [8]
  Activity: inactive
CCRF-CEM [9]
  Activity: inactive
U-937 [10]
  Activity: inactive
CCRF-CEM [11]
  Activity: inactive
CCRF-CEM [12]
  Activity: inactive
U-937 [13]
  Activity: inactive
MOLM-14 [14]
  Activity: inactive
MOLM-14 [15]
  Activity: inactive
U-937 [16]
  Activity: inactive
U-937 [17]
  Activity: inactive
MOLM-14 [18]
  Activity: inactive
CCRF-CEM [19]
  Activity: inactive
MOLM-14 [20]
  Activity: inactive
U-937 [21]
  Activity: inactive
CCRF-CEM [22]
  Activity: inactive
K562
  EC50: > 5 µM
MOLM-14 [23]
  Activity: inactive
U-937 [24]
  Activity: inactive
CCRF-CEM [25]
  Activity: inactive
MOLM-14 [26]
  Activity: inactive
U-937 [27]
  Activity: inactive
MOLM-14 [28]
  Activity: inactive
MOLM-14 [29]
  Activity: inactive
U-937 [30]
  Activity: inactive
MOLM-14 [31]
  Activity: inactive
U-937 [32]
  Activity: inactive
CCRF-CEM [33]
  Activity: inactive
U-937 [34]
  Activity: inactive
MOLM-14 [35]
  Activity: inactive
U-937 [36]
  Activity: inactive
CCRF-CEM [37]
  Activity: inactive
CCRF-CEM [38]
  Activity: inactive
CCRF-CEM [39]
  EC50: > 5 µM
MOLM-14 [40]
  Activity: Dose-Dependent Effect
MOLM-14 [41]
  Activity: inactive
